Measured values reported in patent publication US7846434B2, “Materials and methods for improved immunoglycoproteins” (Trubion Pharmaceuticals, Inc., priority 2006, dated 2010).
Values joined by “and” are separate entries in the source; they are usually repeats but may differ in a detail not shown here. Equal values may be shown once.

Key:
[1] = test system: human CD16 (low affinity polymorphism), FcγRIIIa; test: Simultaneous binding of TRU-016 to CD37 (Daudi cells) and CD16:MuIgGFc fusion
Protocol: TRU-016 produced as described in Example 8 was tested in the following assay, which simultaneously evaluates the ability of the TRU-016 binding domain to bind to a CD37 expressing target cell and the ability of the Fc portion of the TRU-016 SMIP to bind a fusion protein of human CD16 and murine IgG Fc.
The target cell utilized is the Daudi (ATCC CRL-213) cell line. Daudi cells are a human B-lymphoblastoid cell line derived from a Burkitt's lymphoma and express high levels of CD37. The custom soluble CD16:MuIgGFc fusion protein is human CD16 (low affinity polymorphism) linked to a murine IgG Fc.
The appropriate number of Daudi cells (350,000/well times the number of wells) is aliquoted and centrifuged at 250×g for 5 minutes at 15° C. The supernatant is removed. One percent cold paraformaldehyde is prepared by diluting the 4% stock from USB (USB US19943) 1:4 with FACS Buffer. FACS Buffer is prepared by adding 2% FBS (Gibco) to Dulbecco's PBS (Invitrogen) (v/v) and sterile filtering with a 0.22 μm filter. FACS Buffer is stored and used at 4° C. […]
Each sample's bound fluorescence is measured on a BD FACSCalibur flow cytometry system and analyzed with Cell Quest Pro software (Becton Dickinson, ver 5.2). The GeoMean fluorescence intensity for each sample is plotted relative to the TRU-016 concentration. […]

[2] = test system: DG44 CHO cells transfected with TRU-016; test: Effect of castanospermine on DG44 CHO TRU-016 production, shake flasks; format: cell-based, Chinese hamster; details: for Average TRU-016 Produced (ug/mL) ± SD: duplicate flasks
Protocol: Prior to initiation of the experiments, DG44 CHO cells transfected with TRU-016 were grown in shake flasks in Ex-Cell™ 302 CHO serum-free media (SAFC Biosciences) supplemented with 1× non-essential amino acids (MediaTech), 1× sodium pyruvate (MediaTech), 4 mM L-glutamine (MediaTech), 500 nM methotrexate (MP Biomedicals) and 1 mg/L recombinant insulin (Recombulin-GIBCO/Invitrogen Corp.) at 37° C. and 5% carbon dioxide in a humidified incubator. A 200 mM stock concentration of castanospermine (Alexis Biochemicals) was prepared by dilution of the castanospermine in sterile, distilled/deionized water (MediaTech) and filtration through a 13 mm Acrodisc® with a 0.2 μm HT Tuffryn membrane (Pall Corporation). Stock solution was aliquoted into sterile, O-ringed, 0.5 mL microcentrifuge tubes (Fisherbrand, Fisher Scientific) and frozen at −20° C. Approximately 1 hour prior to initiation of experiments, needed aliquots were thawed at room temperature and the contents of each vial mixed well by vortexing.
For each experiment, cells in log phase growth were seeded in the above medium into a total volume of 60 mL in 250 mL shaker flasks at a density of 200,000 cells/mL and CS added at the concentration to be tested. Final CS concentrations of 800 μM, 400 μM, 200 μM, 100 μM, 50 μM, 25 μM and 0 μM were each tested in duplicate flasks. All cultures were incubated at 37° C. and 5% carbon dioxide in a humidified incubator and monitored at least every other day for viable cell density and overall cell viability.
Cultures were harvested on day 8 when overall cell viability was 50-70% (Expt. 1) and 30-50% (Expt. 2). Cells and cellular debris were removed by centrifugation in a Sorvall Super T21 at 3000 rpm for 20 minutes after which the supernatant was sterile filtered through a Millipore Steriflip unit with a 0.22 μm Millipore Express Plus membrane and stored at 2-8° C. until purification.

Compound: O[C@H]1[C@H](O)[C@@H](O)CN2CC[C@H](O)[C@H]12 [castanospermine]
- maximal improvement in TRU-016 glycovariant binding to CD16 ([1]; CHO-K1 produced, CS concentrations of 100 μM or greater): approximately 7 fold
- binding to CD16 (GeoMean fluorescence, D-parameter) of DG44 CHO produced TRU-016 ([1]; relative to concentration of CS up to 400 μM, then levels off): dose-dependent binding response
- Average TRU-016 Produced (ug/mL) ± SD ([2]; CS 25 μM): 180.31 ± 6.6 µg/mL
- ICA (Integral Cell Area) ([2]; CS 25 μM, listed as CS): 21.4 10^6 cells * days/mL and 21.1 10^6 cells * days/mL
- Specific Productivity ([2]; CS 25 μM, listed as CS): 8.22 pg/cell/day and 8.78 pg/cell/day
- Average TRU-016 Produced (ug/mL) ± SD ([2]; CS 50 μM): 176.63 ± 1.0 µg/mL
- ICA (Integral Cell Area) ([2]; CS 50 μM, listed as CS): 21.6 10^6 cells * days/mL and 21.4 10^6 cells * days/mL
- Specific Productivity ([2]; CS 50 μM, listed as CS): 8.15 pg/cell/day and 8.27 pg/cell/day
- ICA (Integral Cell Area) ([2]; CS 100 μM): 21.6 10^6 cells * days/mL
- Average TRU-016 Produced (ug/mL) ± SD ([2]; CS 100 μM): 161.83 ± 0.1 µg/mL
- Specific Productivity ([2]; CS 100 μM, listed as CS): 7.48 pg/cell/day and 7.49 pg/cell/day
- Average TRU-016 Produced (ug/mL) ± SD ([2]; CS 200 μM): 143.53 ± 1.4 µg/mL
- ICA (Integral Cell Area) ([2]; CS 200 μM, listed as CS): 21.9 10^6 cells * days/mL and 22.0 10^6 cells * days/mL
- Specific Productivity ([2]; CS 200 μM, listed as CS): 6.60 pg/cell/day and 6.47 pg/cell/day
- Specific Productivity ([2]; CS 400 μM): 5.48 pg/cell/day
- Average TRU-016 Produced (ug/mL) ± SD ([2]; CS 400 μM): 124.93 ± 1.4 µg/mL
- ICA (Integral Cell Area) ([2]; CS 400 μM, listed as CS): 23.0 10^6 cells * days/mL and 22.4 10^6 cells * days/mL
- Specific Productivity ([2]; CS 400 μM, listed as CS): 5.53 pg/cell/day
- Average TRU-016 Produced (ug/mL) ± SD ([2]; CS 800 μM): 99.65 ± 6.1 µg/mL
- ICA (Integral Cell Area) ([2]; CS 800 μM, listed as CS): 23.9 10^6 cells * days/mL and 23.8 10^6 cells * days/mL
- Specific Productivity ([2]; CS 800 μM, listed as CS): 3.99 pg/cell/day and 4.36 pg/cell/day
- cell viability and growth (integral cell area) ([2]; CS 25-800 μM): did not appear to be significantly affected
